Source: US20260137664A1, “THERAPEUTIC AGENT FOR INTRACTABLE LYMPHATIC DISEASE AND INTRACTABLE VASCULAR DISEASE” (NATIONAL UNIVERSITY CORPORATION TOKAI NATIONAL HIGHER …, priority 2022, published 2026)

Test: Population pharmacokinetic (PPK) analysis, nonlinear mixed effects model, two-compartment model
Assay type: in vivo, patients and healthy adults
Description: The memory unit 12 stores pre-constructed PK (pharmacokinetics) model information. Specifically, it stores a blood concentration calculation formula for the active ingredient sirolimus when the drug is repeatedly administered, a parameter calculation formula for calculating parameters corresponding to patient information, and pre-constructed estimated values of pharmacokinetic parameters. The blood concentration calculation formula is a formula that expresses the blood sirolimus concentration based on a two-compartment model. The parameters corresponding to patient information are parameters used in the blood concentration calculation formula, and are standard parameters for estimating the blood sirolimus concentration of patients who have the same patient information (also referred to as “patient background”). In this document, these are referred to as “standard PK parameters”.
Here, ka is the absorption rate constant (h−1), Cl/F is the clearance (L/h), V1/F is the volume of the first compartment (L), V2/F is the volume of the second compartment (L), and Q/F is the intercompartmental clearance […]. The values of these parameters are related to the patient's weight and age, the dosage form of the administered drug, and the presence or absence of concomitant use of a CYP3A4 inhibitor or CYP3A4 inducer. Di is the dose of the drug.
Each parameter in the blood concentration calculation formula is expressed as a function with the patient's weight and age, the dosage form of the drug, etc. as variables. This function corresponds to the parameter calculation formula for calculating the parameters corresponding to the patient. This parameter calculation formula is obtained in advance by population pharmacokinetic analysis using a nonlinear mixed effects model.
In formula (2), TVka is the typical value of the absorption rate constant ka, and is obtained in advance by population pharmacokinetic analysis. In this embodiment, the point estimate of TVKa is 0.235 (h−1), the relative error is 1.17%, and the 95% confidence interval is 0.229-0.240.
In formula (3), TVCl is a typical value of clearance Cl/F, and is obtained in advance by population pharmacokinetic analysis. In this embodiment, the point estimate of TVCl is 6.44 (L/h), the relative error is 6.04%, and the width of the 95% confidence interval is 5.72-7.25. WT is the patient's body weight. PMA (Post menstrual age) is the age after the last menstrual period (gestational age+postnatal age) and corresponds to the patient's age. e^ηCL represents inter-individual variation. When there is no actual measured value for the patient, ηCL is 0, and the inter-individual variation is 1. “Clinical trials assay” refers to a blood sample stored frozen, and in the case of a blood sample stored frozen, it is multiplied by 1.92. In the case of a blood sample stored refrigerated, it is multiplied by 1. “CYP3A4 fold change” is a coefficient that is determined according to the concomitant drug when there is a concomitant drug. The coefficient will be described later with reference to FIG. 9.
In formula (4), TVV1 is a typical value of the volume of the first compartment V1/F, and is obtained in advance by population pharmacokinetic analysis. In the embodiment, the point estimate of TVV1 is 176 (L), the relative error is 2.43%, and the width of the 95% confidence interval is 168-185. WT is the patient's body weight. eηV1 represents inter-individual variation. When there is no actual measured value for the patient, ηV1 is 0, and the inter-individual variation is 1. Depending on the information that can be obtained, it may be difficult to estimate the random effect of the patient on V1, and in such a case, the inter-individual variation for V1 may be set to 1 for all patients.
In formula (5), TVV2 is the typical value of the volume of the second compartment V2/F, and is determined in advance by population pharmacokinetic analysis. […]

TVka, typical value of the absorption rate constant ka (point estimate) (population pharmacokinetic analysis, relative error 1.17%, 95% confidence interval 0.229-0.240): 0.235 h⁻¹
TVV1, typical value of the volume of the first compartment V1/F (point estimate) (population pharmacokinetic analysis, relative error 2.43%, 95% confidence interval 168-185): 176 L
TVQ, typical value of the intercompartmental clearance Q/F (point estimate) (population pharmacokinetic analysis, relative error 4.07%, 95% confidence interval 31.0-36.3): 33.6 L/h
TVCl, typical value of clearance Cl/F (point estimate) (population pharmacokinetic analysis, relative error 6.04%, 95% confidence interval 5.72-7.25): 6.44 L/h
TVV2, typical value of the volume of the second compartment V2/F (point estimate) (population pharmacokinetic analysis, relative error 13%, 95% confidence interval 218-362): 281 L
factor by which TVka is multiplied (when the drug is a granule (Granule formulation), formula (2)): 4.26
Structure (SMILES): CO[C@H]1C[C@@H]2CC[C@@H](C)[C@@](O)(O2)C(=O)C(=O)N2CCCC[C@H]2C(=O)O[C@H]([C@H](C)C[C@@H]2CC[C@@H](O)[C@H](OC)C2)CC(=O)[C@H](C)/C=C(\C)[C@@H](O)[C@@H](OC)C(=O)[C@H](C)C[C@H](C)/C=C/C=C/C=C/1C [sirolimus]
